Experimental findings from patent US10526327B2, “Histone demethylase inhibitors” (CELGENE QUANTICEL RESEARCH, INC., priority 2013, dated 2020) are described below.

This experiment concerns the target T1, Jarid1A (Homo sapiens, UniProt P29375).
T1 construct: purchased BPS Bioscience 50110
T1 sequence (P29375 1-1090): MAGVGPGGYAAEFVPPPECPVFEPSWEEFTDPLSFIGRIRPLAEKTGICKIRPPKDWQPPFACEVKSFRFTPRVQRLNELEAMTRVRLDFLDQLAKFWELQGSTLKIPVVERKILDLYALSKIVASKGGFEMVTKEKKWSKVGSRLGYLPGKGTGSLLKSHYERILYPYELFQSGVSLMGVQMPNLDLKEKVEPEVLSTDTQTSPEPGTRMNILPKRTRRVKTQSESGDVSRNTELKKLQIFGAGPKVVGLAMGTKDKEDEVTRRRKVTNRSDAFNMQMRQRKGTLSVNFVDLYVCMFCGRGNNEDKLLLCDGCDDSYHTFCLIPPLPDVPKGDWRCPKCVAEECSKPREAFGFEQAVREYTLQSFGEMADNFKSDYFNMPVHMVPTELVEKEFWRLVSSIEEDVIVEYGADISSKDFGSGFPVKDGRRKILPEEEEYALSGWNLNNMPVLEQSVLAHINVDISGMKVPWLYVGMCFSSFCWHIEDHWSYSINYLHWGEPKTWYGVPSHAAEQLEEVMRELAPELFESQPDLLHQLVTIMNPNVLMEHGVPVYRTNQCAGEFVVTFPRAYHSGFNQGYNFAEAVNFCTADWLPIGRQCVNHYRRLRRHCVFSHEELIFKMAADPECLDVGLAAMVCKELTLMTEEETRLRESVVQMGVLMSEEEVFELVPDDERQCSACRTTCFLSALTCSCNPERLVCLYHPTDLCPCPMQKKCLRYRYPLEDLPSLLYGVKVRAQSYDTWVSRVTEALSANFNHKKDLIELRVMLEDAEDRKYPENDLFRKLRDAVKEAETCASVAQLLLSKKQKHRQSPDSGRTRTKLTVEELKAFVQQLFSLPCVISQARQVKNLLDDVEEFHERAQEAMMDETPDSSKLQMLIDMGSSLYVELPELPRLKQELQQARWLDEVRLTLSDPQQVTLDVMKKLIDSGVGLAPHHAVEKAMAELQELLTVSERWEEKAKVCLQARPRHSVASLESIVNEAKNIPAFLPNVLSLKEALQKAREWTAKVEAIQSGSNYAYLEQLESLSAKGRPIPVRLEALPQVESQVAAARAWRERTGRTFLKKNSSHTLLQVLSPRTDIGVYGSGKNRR
In words: Jarid1A in vitro enzyme inhibition assay (TR-FRET). Type of experiment: biochemical. The source says:
This assay determines the ability of a test compound to inhibit Jarid1A, Jarid1B, and JMJD2C demethylase activity. Baculovirus expressed Jarid1A (GenBank Accession #NM_001042603, AA1-1090) was purchased from BPS Bioscience (Cat#50110). Baculovirus expressed Jarid1B (GenBank Accession #NM_006618, AA 2-751) was purchased from BPS Bioscience (Cat #50121) or custom made by MolecularThroughput. Baculovirus expressed JMJD2C (GenBank Accession #BC143571, AA 2-372) was purchased from BPS Bioscience (Cat#50105).
The enzymatic assay of Jarid1A activity is based upon Time Resolved-Fluorescence Resonance Energy Transfer (TR-FRET) detection. The ability of test compounds to inhibit the activity of Jarid1A was determined in 384-well plate format under the following reaction conditions: 1 nM Jarid1A, 300 nM H3K4me3-biotin labeled peptide (Anaspec cat #64357), 2 μM alpha-ketoglutaric acid in assay buffer of 50 mM HEPES, pH7.3, 0.005% Brij35, 0.5 mM TCEP, 0.2 mg/ml BSA, 50 μM sodium L-ascorbate, and 2 μM ammonium iron(II) sulfate. Reaction product was determined quantitatively by TR-FRET after the addition of detection reagent Phycolink Streptavidin-allophycocyanin (Prozyme) and Europium-anti-mono-or di-methylated histone H3 lysine 4 (H3K4me1-2) antibody (PerkinElmer) in the presence of 5 mM EDTA in LANCE detection buffer (PerkinElmer) at a final concentration of 25 nM and 1 nM, respectively.
The assay reaction was initiated by the following: 2 μl of the mixture of 900 nM H3K4me3-biotin labeled peptide and 6 μM alpha-ketoglutaric acid with 2 μl of 11-point serial diluted inhibitor in 3% DMSO was added to each well of plate, followed by the addition of 2 μl of 3 nM Jarid1A to initiate the reaction. The reaction mixture was incubated at room temperature for 30 minutes, and terminated by the addition of 6 μl of 5 mM EDTA in LANCE detection buffer containing 50 nM Phycolink Streptavidin-allophycocyanin and 2 nM Europium-anti-H3K4me1-2 antibody. Plates were read by EnVisionMultilabel Reader in TR-FRET mode (excitation at 320 nm, emission at 615 nm and 665 nm) after 1 hour incubation at room temperature. A ratio was calculated (665/615) for each well and fitted to determine inhibition constant (IC50).
As for `Cn1cnc(-c2nccc3c(O)nc(OCC(F)(F)F)nc23)c1` [Example 70, 8-(1-methyl-1H-imidazol-4-yl)-2-(2,2,2-trifluoroethoxy)pyrido[3,4-d]pyrimidin-4-ol], the half-maximal inhibitory concentration (IC50) (in general, the midpoint of a concentration-inhibition curve) was not above 100 nM.

As to `Oc1nc(Oc2cnn(C3CCOCC3)c2)nc2cnccc12` [Example 67, 2-{[1-(tetrahydro-2H-pyran-4-yl)-1H-pyrazol-4-yl]oxy}pyrido[3,4-d]pyrimidin-4-ol], the IC50 is not above 100 nM.

`COc1ccc(Oc2nc(O)c3ccncc3n2)cc1` [Example 48, 2-(4-methoxyphenoxy)pyrido[3,4-d]pyrimidin-4-ol] had a concentration for half-maximal inhibition (IC50) not above 100 nM.

`COc1cccc(Oc2nc(O)c3ccncc3n2)c1` [Example 44, 2-(3-methoxyphenoxy)pyrido[3,4-d]pyrimidin-4-ol] displayed an IC50 not above 100 nM.

`Cn1cnc(-c2nccc3c(O)nc(OCC(C)(C)O)nc23)c1` [Example 98, 2-(2-hydroxy-2-methylpropoxy)-8-(1-methylimidazol-4-yl)pyrido[3,4-d]pyrimidin-4-ol] yielded an IC50 of 100 to 1000 nM.

`Cn1cnc(-c2nccc3c(O)nc(OCCO)nc23)c1` [Example 75, 2-(2-hydroxyethoxy)-8-(1-methylimidazol-4-yl)pyrido[3,4-d]pyrimidin-4-ol] yielded an IC50 not above 100 nM.

For the compound `CCc1cccc(Oc2nc(O)c3ccncc3n2)c1` [Example 57, 2-(3-ethylphenoxy)pyrido[3,4-d]pyrimidin-4-ol], the IC50 was not above 100 nM.

As for `Oc1nc(Oc2ccc(F)cc2)nc2cnccc12` [Example 47, 2-(4-fluorophenoxy)pyrido[3,4-d]pyrimidin-4-ol], the half-inhibitory concentration (IC50) was not above 100 nM.

Take `Cn1cnc(-c2nccc3c(O)nc(OCc4cccc(Cl)c4Cl)nc23)c1` [Example 106, 2-[(2,3-dichlorophenyl)methoxy]-8-(1-methyl-1H-imidazol-4-yl)pyrido[3,4-d]pyrimidin-4-ol]: the IC50 is 1000 to 10000 nM.

On to `C=CC(=O)N1CCC(n2cc(Oc3nc(O)c4ccncc4n3)cn2)CC1` [Example 91, 1-[4-[4-(4-hydroxypyrido[3,4-d]pyrimidin-2-yl)oxypyrazol-1-yl]piperidin-1-yl]prop-2-en-1-one], for which the IC50 is not above 100 nM.

As to `Cn1cnc(-c2nccc3c(O)nc(OCC4CC4)nc23)c1` [Example 72, 2-(cyclopropylmethoxy)-8-(1-methylimidazol-4-yl)pyrido[3,4-d]pyrimidin-4-ol], the IC50 was not above 100 nM.

For `CC(=O)Nc1ccc(Oc2nc(O)c3ccncc3n2)cc1` [Example 35, N-[4-(4-hydroxypyrido[3,4-d]pyrimidin-2-yl)oxyphenyl]acetamide], the 50% inhibitory concentration (IC50) is not above 100 nM.

Consider `CCOc1c(F)cc(Oc2nc(O)c3ccncc3n2)cc1F` [Example 45, 2-(4-ethoxy-3,5-difluorophenoxy)pyrido[3,4-d]pyrimidin-4-ol], for which the half-maximal inhibitory concentration (IC50) is not above 100 nM.

For `Cn1cnc(-c2nccc3c(O)nc(Oc4ccc(F)c(F)c4)nc23)c1` [Example 81, 2-(3,4-difluorophenoxy)-8-(1-methylimidazol-4-yl)pyrido[3,4-d]pyrimidin-4-ol], the IC50 is not above 100 nM.

`CC(C)CCn1cc(Oc2nc(O)c3ccnc(-c4cn(C)cn4)c3n2)cn1` [Example 80, 2-[1-(3-methylbutyl)pyrazol-4-yl]oxy-8-(1-methylimidazol-4-yl)pyrido[3,4-d]pyrimidin-4-ol] showed an IC50 not above 100 nM.

Consider `CCCOc1nc(O)c2ccncc2n1` [Example 7, 2-propoxy-3H-pyrido[3,4-d]pyrimidin-4-one], for which the IC50 is not above 100 nM.

For `Cn1cnc(-c2nccc3c(O)nc(Oc4cnn(C5CCOCC5)c4)nc23)c1` [Example 100, 8-(1-methylimidazol-4-yl)-2-[1-(oxan-4-yl)pyrazol-4-yl]oxypyrido[3,4-d]pyrimidin-4-ol], the IC50 is not above 100 nM.

For `CCn1cc(Oc2nc(O)c3ccncc3n2)cn1` [Example 62, 2-[(1-ethyl-1H-pyrazol-4-yl)oxy]pyrido[3,4-d]pyrimidin-4-ol], the IC50 was not above 100 nM.

Turning to `CN(C)CCOc1nc(O)c2ccnc(-c3cn(C)cn3)c2n1` [Example 76, 2-[2-(dimethylamino)ethoxy]-8-(1-methylimidazol-4-yl)pyrido[3,4-d]pyrimidin-4-ol], the IC50 fell in the range of 100 to 1000 nM.

In turn, `CC(C)(C)OC(=O)Nc1cccc(Oc2nc(O)c3ccncc3n2)c1` [Example 36, tert-butyl N-[3-(4-hydroxypyrido[3,4-d]pyrimidin-2-yl)oxyphenyl]carbamate] had an IC50 not above 100 nM.

In turn, `Cc1nn(C)c2cc(Oc3nc(O)c4ccnc(-c5cn(C)cn5)c4n3)ccc12` [Example 85, 2-(1,3-dimethylindazol-6-yl)oxy-8-(1-methylimidazol-4-yl)pyrido[3,4-d]pyrimidin-4-ol] gave a 50% inhibitory concentration (IC50) not above 100 nM.

Consider `Oc1nc(OCC(F)(F)F)nc2cnccc12` [Example 12, 2-(2,2,2-trifluoroethoxy)pyrido[3,4-d]pyrimidin-4-ol], for which the IC50 is not above 100 nM.

As to `O=C(c1cc(F)cc(Oc2nc(O)c3ccncc3n2)c1)N1CCOCC1` [Example 60], the IC50 was not above 100 nM.

In the case of `Cn1cnc(-c2nccc3c(O)nc(OCC4CCOC4)nc23)c1` (centres unmarked) [Example 103, 8-(1-methyl-1H-imidazol-4-yl)-2-(oxolan-3-ylmethoxy)pyrido[3,4-d]pyrimidin-4-ol], the IC50 lay in the range of 100 to 1000 nM.

On to `Cn1cnc(-c2nccc3c(O)nc(OCCC4CC4)nc23)c1` [Example 78, 2-(2-cyclopropylethoxy)-8-(1-methylimidazol-4-yl)pyrido[3,4-d]pyrimidin-4-ol], for which the IC50 was not above 100 nM.

`Oc1nc(OCC2CCC2)nc2cnccc12` [Example 11, 2-(cyclobutylmethoxy)-3H-pyrido[3,4-d]pyrimidin-4-one] showed an IC50 of 100 to 1000 nM.

In the case of `Cn1cnc(-c2nccc3c(O)nc(OCc4ccccc4)nc23)c1` [Example 101, 8-(1-methylimidazol-4-yl)-2-phenylmethoxypyrido[3,4-d]pyrimidin-4-ol], the half-maximal inhibitory concentration (IC50) is not above 100 nM.

The compound `COc1c(F)cc(Oc2nc(O)c3ccncc3n2)cc1F` [Example 43, 2-(3,5-difluoro-4-methoxyphenoxy)pyrido[3,4-d]pyrimidin-4-ol] came in with a 50% inhibitory concentration (IC50) not above 100 nM.

For `Cn1cnc(-c2nccc3c(O)nc(OCc4cccc(F)c4)nc23)c1` [Example 104, 2-[(3-fluorophenyl)methoxy]-8-(1-methyl-1H-imidazol-4-yl)pyrido[3,4-d]pyrimidin-4-ol], the 50% inhibitory concentration (IC50) lay within 100 to 1000 nM.

The compound `COCCn1ncc2ccc(Oc3nc(O)c4ccncc4n3)cc21` [Example 61, 2-{[1-(2-methoxyethyl)-1H-indazol-6-yl]oxy}pyrido[3,4-d]pyrimidin-4-ol] registered an IC50 not above 100 nM.

In turn, `CC(C)n1cc(Oc2nc3cnccc3c(=O)[nH]2)cn1` [Example 63, 2-{[1-(propan-2-yl)-1H-pyrazol-4-yl]oxy}pyrido[3,4-d]pyrimidin-4-ol] gave a 50% inhibitory concentration (IC50) not above 100 nM.

`Oc1nc(OC2CCCC2)nc2cnccc12` [Example 6, 2-cyclopentyloxy-3H-pyrido[3,4-d]pyrimidin-4-one] came in with a half-maximal inhibitory concentration (IC50) of 100 to 1000 nM.
